Test results: the NIST ThermoML archive (doi:10.1016/j.jct.2014.01.030)
Numbers after ± are expanded uncertainties.

Experiment: xn = mol fraction of the nth substance listed
Conditions: 101 kPa, Liquid; for speed of sound: Sing-around technique in a fixed-path interferometer; for mass density: Vibrating tube method

## CCn1cc[n+](C)c1.COS(=O)(=O)[O-] [1-ethyl-3-methylimidazolium methylsulfate] + CO
288.15 K, x2 = 0
  speed of sound: 1781 ± 2 m/s
  mass density: 1287.57 ± 0.47 kg/m3
288.15 K, x2 = 0.0515
  speed of sound: 1772 ± 2 m/s
  mass density: 1282.18 ± 0.44 kg/m3
288.15 K, x2 = 0.1025
  speed of sound: 1763 ± 2 m/s
  mass density: 1276.36 ± 0.4 kg/m3
288.15 K, x2 = 0.1919
  speed of sound: 1747 ± 2 m/s
  mass density: 1265.13 ± 0.35 kg/m3
288.15 K, x2 = 0.3013
  speed of sound: 1720 ± 2 m/s
  mass density: 1247.5 ± 0.29 kg/m3
288.15 K, x2 = 0.4032
  speed of sound: 1690 ± 2 m/s
  mass density: 1227.98 ± 0.25 kg/m3
288.15 K, x2 = 0.5038
  speed of sound: 1653 ± 2 m/s
  mass density: 1203.27 ± 0.21 kg/m3
288.15 K, x2 = 0.604
  speed of sound: 1605 ± 2 m/s
  mass density: 1170.7 ± 0.19 kg/m3
288.15 K, x2 = 0.7023
  speed of sound: 1541 ± 2 m/s
  mass density: 1127.32 ± 0.18 kg/m3
288.15 K, x2 = 0.8003
  speed of sound: 1452 ± 2 m/s
  mass density: 1065.67 ± 0.2 kg/m3
288.15 K, x2 = 0.9049
  speed of sound: 1316 ± 2 m/s
  mass density: 962.26 ± 0.25 kg/m3
288.15 K, x2 = 0.9515
  speed of sound: 1237 ± 2 m/s
  mass density: 893.83 ± 0.37 kg/m3
298.15 K, x2 = 0
  speed of sound: 1756 ± 2 m/s
  mass density: 1280.81 ± 0.47 kg/m3
298.15 K, x2 = 0.0515
  speed of sound: 1748 ± 2 m/s
  mass density: 1275.24 ± 0.43 kg/m3
298.15 K, x2 = 0.1025
  speed of sound: 1739 ± 2 m/s
  mass density: 1269.42 ± 0.4 kg/m3
298.15 K, x2 = 0.1919
  speed of sound: 1722 ± 2 m/s
  mass density: 1258.14 ± 0.35 kg/m3
298.15 K, x2 = 0.3013
  speed of sound: 1695 ± 2 m/s
  mass density: 1240.45 ± 0.29 kg/m3
298.15 K, x2 = 0.4032
  speed of sound: 1665 ± 2 m/s
  mass density: 1220.84 ± 0.24 kg/m3
298.15 K, x2 = 0.5038
  speed of sound: 1628 ± 2 m/s
  mass density: 1196.01 ± 0.21 kg/m3
298.15 K, x2 = 0.604
  speed of sound: 1578 ± 2 m/s
  mass density: 1163.31 ± 0.19 kg/m3
298.15 K, x2 = 0.7023
  speed of sound: 1514 ± 2 m/s
  mass density: 1119.71 ± 0.18 kg/m3
298.15 K, x2 = 0.8003
  speed of sound: 1424 ± 2 m/s
  mass density: 1057.76 ± 0.2 kg/m3
298.15 K, x2 = 0.9049
  speed of sound: 1286 ± 2 m/s
  mass density: 953.82 ± 0.25 kg/m3
298.15 K, x2 = 0.9515
  speed of sound: 1206 ± 2 m/s
  mass density: 885.04 ± 0.37 kg/m3
308.15 K, x2 = 0
  speed of sound: 1732 ± 2 m/s
  mass density: 1273.97 ± 0.46 kg/m3
308.15 K, x2 = 0.0515
  speed of sound: 1724 ± 2 m/s
  mass density: 1268.37 ± 0.43 kg/m3
308.15 K, x2 = 0.1025
  speed of sound: 1715 ± 2 m/s
  mass density: 1262.52 ± 0.39 kg/m3
308.15 K, x2 = 0.1919
  speed of sound: 1698 ± 2 m/s
  mass density: 1251.2 ± 0.34 kg/m3
308.15 K, x2 = 0.3013
  speed of sound: 1670 ± 2 m/s
  mass density: 1233.43 ± 0.28 kg/m3
308.15 K, x2 = 0.4032
  speed of sound: 1640 ± 2 m/s
  mass density: 1213.74 ± 0.24 kg/m3
308.15 K, x2 = 0.5038
  speed of sound: 1602 ± 2 m/s
  mass density: 1188.8 ± 0.21 kg/m3
308.15 K, x2 = 0.604
  speed of sound: 1553 ± 2 m/s
  mass density: 1155.94 ± 0.19 kg/m3
308.15 K, x2 = 0.7023
  speed of sound: 1487 ± 2 m/s
  mass density: 1112.12 ± 0.18 kg/m3
308.15 K, x2 = 0.8003
  speed of sound: 1397 ± 2 m/s
  mass density: 1049.86 ± 0.21 kg/m3
308.15 K, x2 = 0.9049
  speed of sound: 1258 ± 2 m/s
  mass density: 945.37 ± 0.25 kg/m3
308.15 K, x2 = 0.9515
  speed of sound: 1176 ± 2 m/s
  mass density: 876.21 ± 0.38 kg/m3
